Like-named read-outs stand apart in the source and are kept apart here.
Tests used:
mvNei1 = target: T1, mvNei1 (Acanthamoeba polyphaga mimivirus, UniProt Q5UQ00); experiment: mvNei1 DNA glycosylase/AP lyase activity assay on DHU:G 24-mer duplex; assay type: biochemical; conditions: for effect on mvNei1 catalytic activity: 0.2 mM compound
T1 construct: 6His (C); made in house; host or cells: E. coli Rosetta2 (DE3)
Description: Figure 4 Comparative analysis of the effect of 2TX and TXn on Fpg/Nei DNA glycosylases. Enzyme activities were measured as described in the Figure 1 legend using […] of a 5′-[^32P]-24-mer DNA duplex containing either an 8-oxoG opposite C for LlFpg or a […] (DHU) opposite G for hNeil1 and mvNei1. The DNA probe was incubated with the indicated protein concentration and 0.2 mM TXn compounds in the presence or absence of 1 mM dithiothreitol (DTT) and TCEP (a representative experiment is illustrated by the upper histograms). The DNA probe for EMSA was 0.1 nM of 5′-[^32P]-[…] DNA duplex containing THF with LlFpg and mvNei1 (bottom panels: gel autoradiography) with the indicated conditions and as described in ‘Materials and Methods’.
Fpg, hNeil1 and mvNei1 are bifunctional DNA glycosylases associated with concerted DNA glycosylase activity (cleavage of the N-glycosidic bond between the base lesion and the C1′ of the deoxyribose) and AP lyase activity that comprises the successive cleavage of the phosphodiester bonds at the 3′ and 5′ of the resulting abasic (AP) site, respectively (β, δ-elimination). Thus, AP sites that result from the excision of the damaged base are quantitatively converted into one nucleoside gap by these enzymes. The DNA glycosylase/AP lyase activity of each enzyme was measured by incubating 20 nM of 24-mer DNA duplexes ([OG:C] and [DHU:G] for Fpg and hNeil1/mvNei1, respectively) 5′-labeling on the damaged strand (see above) with 2 nM of Fpg, or mvNei1 for 15 min or, with 20 nM of hNeil1 for 30 min at 37 °C in 10 mM Tris-HCl, pH 7.6, 150 mM NaCl, 1 mM EDTA, 0.1 mg/mL BSA and 8% DMSO. The reaction was stopped by the addition of 1 volume of formamide loading buffer (96% formamide, 20 mM Tris/HCl pH 8.0 and 2 mM Na2EDTA), heated at 80 °C for 2 min and then analyzed by 20% Urea-PAGE, as previously described. […] Under these conditions, only 50% of the substrate is converted to the cleavage product (limiting enzyme concentration conditions). For an initial evaluation of the inhibitory effect, 40 µM of 2TX/TXn was used. The thio-compound was added to the reaction mixture before the final addition of the enzyme (competition condition). For the best identified inhibitors, a dose-response curve was generated and IC50^A determined (Figure 1 and Table 1).

LlFpg/DNA complex C1 = target: T2, LlFpg/DNA complex C1 (Lactococcus lactis subsp. cremoris, UniProt P42371); experiment: EMSA, Fpg DNA binding to 14-mer [THF:C] duplex, complex C1 (lesion recognition complex, Fpg/DNA 1/1); conditions: for IC50: 0.1 nM 14-mer [THF:C], preformed complex; for IC50 / number of TXn equivalents per one protein equivalent for 50% inhibition of DNA binding activity, C1: 0.25 nM Fpg; for number of TXn equivalents per one protein equivalent for 50% inhibition of DNA binding activity, C1: value in parentheses; for effect on stability of complex C1 in the presence of TCEP: [1/1] molar ratio TCEP/compound (1 mM each), Figure S6
T2 construct: made in house; host or cells: E. coli BH540 (fpg defective)
Text: To complement this study, we examined the effect of TXn on the binding of Fpg to a short DNA duplex containing a tetrahydrofuran (THF), a non-cleavable AP site analog. The enzyme specifically recognizes THF and forms a stable abortive complex with DNA [18, 34, 35, 36]. […] A representative titration experiment (with and without TCEP) of the 14-mer [THF:C] Fpg formed two stable complexes with this short DNA probe that were easily observed by EMSA: a high-affinity complex C1 corresponding to the lesion recognition complex (LRC), with nanomolar affinity, and a complex C2 only observed at higher Fpg concentrations. C2 results in C1 titration by a second Fpg molecule. This finding illustrates that the crystal structure of Fpg bound to 8-oxoG-carbanucleotide-containing DNA [38] (Figure S5). The stability of each preformed complex was then examined by EMSA in the presence of 2TX or TXn. […] The enzyme inactivation mediated by 2TX through ZnF oxidation that directly affects the DNA binding properties of the enzyme is also in agreement with this last observation.
Figure 2 The effect of 2TX and TXn on Fpg DNA binding to abasic site-containing DNA. A 14-mer DNA duplex containing a tetrahydrofurane (THF) site as an abasic site analog was incubated with a limiting Fpg concentration (0.25 nM) with and without increasing concentrations of TXn. Incubation mixtures were then analyzed by electrophoretic mobility shift assay (EMSA), as described in the ‘Materials and Methods’. (a) Titration experiments with (+) and without (-) 2 mM tris(2-carboxyethyl)phosphine hydrochloride (TCEP) C1 and C2 are for the [1/1] and [2/1] Fpg/DNA complexes, respectively (see detailed in the text). (b) Fpg DNA binding concentration-dependence for 2TX and the more efficient TXn inhibitors. A representative EMSA autoradiography with 0.25 nM of Fpg alone (lane no) and 0.5, 2.5, 5, 10, 20, 40, 50, 250, 1000 µM is shown in the upper panel. IC50app^B corresponds to the TXn amount needed to halve the C1 complex formation and was extracted from the dose-response curves (lower panel; Table 1).
The DNA binding activity was measured using EMSA [37]. Briefly, 0.1 nM of the 5′-labeled 14-mer [THF:C] (see above) was incubated with the enzyme at 4 °C for 30 min in 25 mM HEPES/NaOH (pH 7.5), 150 mM NaCl, 5% glycerol, 0.1 mg/mL BSA and 8% DMSO. The incubation mixture was then loaded onto a native 10% polyacrylamide gel (Acryl/Bis 19/1) and electrophoresed at 25 V/cm for 90 min at 4 °C. After electrophoresis, the gels were dried and exposed overnight for autoradiography using a Typhoon imager and quantified with ImageQuant software. To evaluate the inhibitor effect of 2TX/TXn on the DNA binding activity of each Fpg/Nei enzyme, we first determined the experimental conditions required to bind 50% of the DNA probes without an inhibitor in the presence of 8% DMSO (limiting enzyme concentration). Under these conditions, we obtained the half-maximal DNA binding 0.25, 7 and 5 nM of Fpg, hNeil1 and mvNei1. We used this limited enzyme concentrations to evaluate the inhibitor effect of 2TX/TXn on the enzyme DNA binding activity. This effect was determined by the addition of the thio-compound in the pre-equilibrium mixture of the enzyme and DNA probe (30 min) and incubated for an additional 30 min at 4 °C. For the best inhibitors of Fpg, a dose-response curve was established from at least three independent experiments and the IC50 was determined (IC50^B, Table 1).

[1] = catalytic activity at 37 °C, compound stock in DMSO, DHU:G 24-mer, read-out: IC50app^A (Fpg/Nei enzyme catalysis) mvNEI1
[2] = DNA binding at 4 °C, read-out: IC50app^B (Fpg DNA binding) C1
[3] = IC50app^B (Fpg DNA binding) C1, DNA binding at 4 °C

T2 sequence (P42371 2-273, one chain of several): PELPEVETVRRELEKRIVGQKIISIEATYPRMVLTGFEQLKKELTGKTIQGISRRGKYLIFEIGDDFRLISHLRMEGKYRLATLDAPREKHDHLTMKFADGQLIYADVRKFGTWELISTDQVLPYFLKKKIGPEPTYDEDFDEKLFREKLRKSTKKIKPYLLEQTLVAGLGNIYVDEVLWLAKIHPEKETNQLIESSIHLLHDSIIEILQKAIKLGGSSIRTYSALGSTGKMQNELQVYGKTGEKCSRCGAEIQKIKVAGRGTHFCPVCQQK
T1 sequence (Q5UQ00 whole entry): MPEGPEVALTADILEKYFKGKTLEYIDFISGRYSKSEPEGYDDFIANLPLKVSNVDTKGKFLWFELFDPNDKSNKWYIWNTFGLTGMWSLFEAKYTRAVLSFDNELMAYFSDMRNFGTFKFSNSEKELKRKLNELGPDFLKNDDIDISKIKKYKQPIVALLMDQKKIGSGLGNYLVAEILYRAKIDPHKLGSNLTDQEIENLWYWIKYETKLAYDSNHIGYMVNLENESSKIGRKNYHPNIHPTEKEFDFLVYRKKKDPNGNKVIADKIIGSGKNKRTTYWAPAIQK

| Structure (SMILES) | effect on mvNei1 catalytic activity (mvNei1; Figure 4) | inhibition of mvNei1 DNA binding and catalytic activities in the presence of TCEP (mvNei1; 1 mM TCEP (DTT to a lesser extent), Figure 4) | IC50 (mvNei1; [1]) [µM] | IC50 (LlFpg/DNA complex C1; [2]) [µM] | number of TXn equivalents per one protein equivalent for 50% inhibition of DNA binding activity, C1 (LlFpg/DNA complex C1) | effect on stability of complex C1 in the presence of TCEP (LlFpg/DNA complex C1) | IC50 (mvNei1) [µM] | IC50 (LlFpg/DNA complex C1; [3]) [µM] |
| --- | --- | --- | --- | --- | --- | --- | --- | --- |
| O=c1[nH]c(=S)[nH]c2[nH]c(=S)[nH]c12 [TX19] | apparent inhibitory effects | suppressed | 124 ± 4 | 17.1 ± 2.4 | 68 | – | – | – |
| FC(F)(F)c1nc(S)c2nc[nH]c2n1 [TX13, 2-trifluoromethyl-6-thiopurine] | – | – | > 500 | 6.1 ± 0.5 | 98 | remained stable | – | – |
| Nc1ncnc2[nH]c(S)nc12 [TX27] | – | – | – | – | 177 | remained stable | 277 ± 18 | 44.2 ± 8 |
| O=c1[nH]c(=S)[nH]c2nc[nH]c12 [Compound 2TX, 2-thioxanthine, reference compound] | did not significantly affect | – | > 500 | 113 ± 17 | – | – | – | – |
| O=c1[nH]c2[nH]c(=S)[nH]c(=O)c2[nH]1 [TX14, 2-thio-6,8-dioxopurine] | – | – | – | – | 100 | – | > 500 | 25.1 ± 2.4 |
